Assay results taken from US10233180B2, “Substituted nitrogen-containing heterocyclic derivatives, pharmaceutical compositions comprising the same and applications of antitumor thereof” (ZHEJIANG UNIVERSITY, priority 2014, dated 2019).
pIC50: −log10 of the molar value.

Legend:
[1] = system: human colon cancer cell strain HCT-116; assay: MTT assay, inhibition of tumor cell growth in vitro, 72 h; assay type: cell-based; details: Homo sapiens, HCT-116, MTT, read-out: Antitumor proliferative activities of tumor cell (IC50, μM) HCT-116 (converted)
Description: (§1) First, inhibitory activity on tumor proliferation in vitro is determined and the structure activity relationship is preliminarily studied, in which different solid tumor cell strains are selected for determining the antitumor activities in vitro of the synthesized compounds.
(§2) Cell strains: Human ovarian cancer cell strain (OVCAR8), colon adenocarcinoma cell strain (HCT-116)
HCT-116: RPMI 1640+Fetal Bovine Serum
(§3) Preparing method of medicines: Dissolving the medicine in DMSO to make a 50 mM stock solution, and diluting it according to a certain ratio to obtain 5 different concentrations.
(§4) Two selected tumor cells OVCAR8 and HCT-116 are incubated at 37° C. in a 5% CO2 incubator, which are subcultured when cells grow up to a density of 70˜90% (adherent cells are subcultured after digesting by Duck's EDTA) for later experiments.
(§5) Compounds are dissolved and diluted by dimethyl sulfoxide (DMSO), and tumor cells OVCAR8 and HCT-116 are seeded in a 96-well plate at a density of 4000 cells/200 μl/well, 1 μl of the compounds are added to each well with the final concentration of 50 μM, 10 μM, 2 μM, 0.4 μM and 0.08 μM, which is incubated for 72 h at 37° C. in a 5% CO2 incubator with DMSO (1%) as blank control.
(§6) The calculating formula of cell inhibitory rate is: cell inhibitory rate %=(the OD value of the control group−the OD value of the medication group)/the OD value of the control group×100%, the half maximal inhibitory concentration (IC50) is obtained by Bliss method.

Akt1 = target: T1, Akt1 (Homo sapiens, UniProt P31749); assay: AKT1/PKBα KinEASE FP Fluorescein Green Assay (fluorescence polarization kinase kit); assay type: biochemical; details: 1 h reaction, read-out: Inhibitory activities against Akt1 (IC50)
T1 construct: purchased 32-021
T1 sequence (P31749 whole entry): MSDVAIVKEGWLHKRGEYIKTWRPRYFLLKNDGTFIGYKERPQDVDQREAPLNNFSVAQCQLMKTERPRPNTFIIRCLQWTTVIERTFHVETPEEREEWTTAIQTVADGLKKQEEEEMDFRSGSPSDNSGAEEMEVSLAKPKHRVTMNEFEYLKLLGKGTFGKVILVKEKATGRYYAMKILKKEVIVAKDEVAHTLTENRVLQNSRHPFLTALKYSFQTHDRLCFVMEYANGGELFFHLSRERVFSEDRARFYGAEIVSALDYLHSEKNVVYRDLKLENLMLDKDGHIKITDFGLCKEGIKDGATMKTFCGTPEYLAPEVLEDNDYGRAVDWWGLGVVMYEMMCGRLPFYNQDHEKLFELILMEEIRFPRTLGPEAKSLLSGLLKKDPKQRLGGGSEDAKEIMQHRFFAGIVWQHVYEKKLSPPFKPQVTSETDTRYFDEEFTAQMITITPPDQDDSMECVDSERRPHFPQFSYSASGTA
Description: Second, method for determining the inhibitory activities of substituted nitrogen-containing heterocyclic derivatives in the present invention against Akt1 enzyme:
The inhibitory activities of compounds against AKT1/PKBα are determined by using AKT1/PKBα KinEASE™ FP Fluorescein Green Assay (Green fluorescence detection system of Kinase).
Principle adopted by the fluorescence polarization detection of protein kinase B is a competitive reaction: the phosphorylated tracers labeled with fluorescence will compete with unlabeled phosphorylated products produced by reacting with protein kinase B to combine anti-serine antibodies. […] However, in the reaction mixture containing phosphorylated products, fewer tracers will combine with antibodies (fluorescent tracers are replaced from the antibodies), and signals sent our occur depolarizing. Therefore, the change of polarization is directly related to the activity of protein kinase B in the reaction.
Each of 0.25 μl of compounds with a concentration of 50 μM and the positive control are added to a 384-well plate at room temperature, and each sample is provided with three parallel wells, and then 10 μl of STK Substrate 3 Working Solution, 5 μl of AKT1/PKBα Working Solution, 10 μl of ATP Working Solution are added to each sample respectively, the mixtures are slightly vibrated and shaked for a few minutes. Reaction is carried out just after the adding 10 μl of ATP Working Solution, from this time, reacting for 1 h. After 1 h, 5 μl of STK Stop Mix and 5 μl of STK Antibody Mix are added to each sample respectively to stop the reaction. The samples are maintained for 4 h at room temperature after adding is completed, the polarization values of samples are determined by fluorescence polarization of Microplate Reader (Detection of the signals is valid within 24 h), the inhibitory rate of compounds against the enzyme is calculated by polarization value, and thereby IC50 is calculated.
Experiment is set up four control groups at the same time, which are Buffer Control Wells, Tracer Control Wells, No Enzyme Wells and blank control of dimethyl sulfoxide, respectively. Thus obtained data are used to calculate the inhibitory rate (the preparation methods of above various solution required for determining the activities of compounds against enzyme refer to the specification of the kit of AKT1/PKBα KinEASE™ FP Fluorescein Green Assay Catalog #32-021).

[2] = system: Human ovarian cancer cell strain OVCAR-8; assay: MTT assay, inhibition of tumor cell growth in vitro, 72 h; assay type: cell-based; details: Homo sapiens, OVCAR-8, MTT, read-out: Antitumor proliferative activities of tumor cell (IC50, μM) OVCAR-8
Description: as §1, §2
Medium: OVCAR8: RPMI 1640+Fetal Bovine Serum
as §3, §4, §5, §6

SMILES	IC50 [1]	pIC50 (Akt1)	IC50 [2]
Cn1ncc(Cl)c1-c1cc(C(=O)N[C@@H]2CNC(CC(=O)NCC(O)CO)C[C@H]2c2ccc(Cl)c(Cl)c2)oc1Cl (stereo partly drawn) [Compound 121, 5-chloro-4-(4-chloro-1-methyl-1H-pyrazol-5-yl)-N-((3S,4S)-4-(3,4-dichlorophenyl)-6-(2-((2,3-dihydroxypropyl)amido)-2-oxoethyl)piperidin-3-yl)furan-2-formamide]	0.36 µM	8.30	0.74 µM
Cn1ncc(Cl)c1-c1cnc(C(=O)N[C@@H]2CNCC[C@H]2c2ccc(F)c(F)c2)nc1 [Compound 93, 5-(4-chloro-1-methyl-1H-pyrazol-5-yl)-N-((3S,4S)-4-(3,4-difluorophenyl)piperidin-3-yl)pyrimidine-2-formamide]	5.82 µM	8.10	7.89 µM
Cn1ncc(Br)c1-c1coc(C(=O)N[C@H]2CNCC[C@@H]2c2ccc(Cl)cc2)c1 (racemic) [Compound 26, 4-(4-bromo-1-methyl-1H-pyrazol-5-yl)-N-(3,4-trans-4-(4-chlorphenyl)piperidin-3-yl)furan-2-formamide]	2.16 µM	7.47	4.89 µM
Cc1occc1-c1cc(-c2c(Cl)cnn2C)ccc1C(=O)N[C@@H]1CNCC[C@H]1c1cccc(F)c1 [Compound 88, 4-(4-chloro-1-methyl-1H-pyrazol-5-yl)-N-((3S,4S)-4-(3-fluorophenyl)piperidin-3-yl)-2-(2-methylfuran-3-yl)benzamide]	4.21 µM	8.10	1.07 µM
C[C@H]1CNC[C@@H](NC(=O)c2ccc(-c3c(Cl)cnn3C)s2)[C@@H]1c1cccc(F)c1 [Compound 150, 5-(4-chloro-1-methyl-1H-pyrazol-5-yl)-N-((3S, 4S, 5R)-4-(3-fluorophenyl)-5-methylpiperidin-3-yl)thiophene-2-formamide]	4.43 µM	8.52	1.19 µM
CCc1sc(C(=O)N[C@H]2CNCC[C@@H]2c2cnc3ccccc3c2)cc1-c1c(C(C)C)cnn1C (racemic) [Compound 9]	2.35 µM	7.06	0.94 µM
Cn1nccc1-c1ccc(C(=O)N[C@@H]2CNCC[C@H]2c2ccc(F)c(F)c2)cc1 [Compound 77, N-((3S,4S)-4-(3,4-difluorophenyl)piperidin-3-yl)-4-(1-methyl-1H-pyrazol-5-yl)benzamide]	2.81 µM	7.74	3.68 µM
Cc1cnn(C)c1-c1cnc(C(=O)N[C@H]2CNCC[C@@H]2c2ccc[nH]2)nc1C (racemic) [Compound 60, 4-methyl-5-(1,4-dimethyl-1-methyl-1H-pyrazol-5-yl)-N-(3,4-trans-4-(pyrrole-2-yl)piperidins-3-yl)pyrimidine-2-formamide]	2.27 µM	6.01	6.01 µM
Cn1ncc(Cl)c1-c1cc(C(=O)N[C@H]2CNCC[C@@H]2c2ccc(C(F)(F)F)cc2)oc1Cl (racemic) [Compound 30, 5-chloro-4-(4-chloro-1-methyl-1H-pyrazol-5-yl)-N-(3,4-trans-4-(4-trifluoromethylphenyl)piperidin-3-yl)furan-2-formamide]	21.6 µM	7.04	1.01 µM
Cn1nccc1-c1ccc(C(=O)N[C@@H]2CNCC[C@H]2c2cccc(F)c2)s1 [Compound 146, N-((3S, 4S)-4-(3-fluorophenyl)piperidin-3-yl)-5-(1-methyl-1H-pyrazol-5-yl)thiophene-2-formamide]	0.44 µM	8.15	4.19 µM
Cn1ncc(-c2ccncc2)c1-c1ccc(C(=O)N[C@@H]2CNCC[C@H]2c2cccc(F)c2)s1 [Compound 140, N-((3S, 4S)-4-(3-fluorophenyl)piperidin-3-yl)-5-(1-methyl-4-(pyridinyl-4-yl)-1H-pyrazol-5-yl)thiophene-2-formamide]	1.1 µM	9.00	6.67 µM
Cn1ncc(Br)c1-c1csc(C(=O)N[C@H]2CNCC[C@@H]2c2ccc(F)c(F)c2)c1 [Compound 41, 4-(4-bromo-1-methyl-1H-pyrazol-5-yl)-N-((3R,4R)-4-(3,4-difluorophenyl)piperidin-3-yl)thiophene-2-formamide]	4.06 µM	6.34	9.43 µM
Cn1nccc1-c1coc(C(=O)N[C@H]2CNCC[C@@H]2c2ccccc2)n1 (racemic) [Compound 19, 4-(1-methyl-1H-pyrazol-5-yl)-N-(3,4-trans-4-phenylpiperidin-3-yl)oxazole-2-formamide]	4.56 µM	7.09	9.83 µM
Cn1ncc(Br)c1-c1ccc(C(=O)N[C@@H]2CNCC[C@H]2c2cc(F)c(F)c(F)c2)cc1 [Compound 81, 4-(4-bromo-1-methyl-1H-pyrazol-5-yl)-N-((3S,4S)-4-(3,4,5-trifluorophenyl)piperidin-3-yl)benzamide]	1.1 µM	7.74	3.57 µM
Cn1ncc(Cl)c1-c1cc(C(=O)N[C@@H]2CNC(CCOC(=O)C(F)(F)F)C[C@H]2c2ccc(F)c(F)c2)oc1Cl (stereo partly drawn) [Compound 132, 2-((4S,5S)-5-(5-chloro-4-(4-chloro-1-methyl-1H-pyrazol-5-yl)furan-2-formamido)-4-(3,4-difluorophenyl)piperidin-2-yl)ethyl 2,2,2-trifluoroacetate]	1.21 µM	8.70	1.33 µM
Cc1cc(C(=O)N[C@@H]2CNCC[C@H]2c2ccc(Cl)c(C(F)(F)F)c2)ccc1-c1c(Cl)cnn1C [Compound 74, 4-(4-chloro-1-methyl-1H-pyrazol-5-yl)-N-((3S,4S)-4-(4-chloro-3-(trifluoromethyl)phenyl)piperidin-3-yl)-3-methylbenzamide]	0.42 µM	7.85	1.3 µM
Cn1ncc(Cl)c1-c1cc(C(=O)N[C@@H]2CNC(CC(O)CO)C[C@H]2c2ccc(Cl)c(Cl)c2)oc1Cl (stereo partly drawn) [Compound 112, 5-chloro-4-(4-chloro-1-methyl-1H-pyrazol-5-yl)-N-((3S,4S)-4-(3,4-dichlorophenyl)-6-(2,3-dihydroxypropyl)piperidin-3-yl)furan-2-formamide]	0.84 µM	8.70	0.33 µM
Cn1ncc(Cl)c1-c1coc(C(=O)N[C@H]2CNCC[C@@H]2c2ccc(Cl)cc2)c1 (racemic) [Compound 23, 4-(4-chloro-1-methyl-1H-pyrazol-5-yl)-N-(3,4-trans-4-(4-chlorphenyl)piperidin-3-yl)furan-2-formamide]	3.78 µM	7.35	1.22 µM
CNC(=O)CC1C[C@@H](c2ccc(F)c(F)c2)[C@H](NC(=O)c2ccc(-c3c(Cl)cnn3C)c(Cl)c2)CN1 (stereo partly drawn) [Compound 99, 3-chloro-4-(4-chloro-1-methyl-1H-pyrazol-5-yl)-N-((3S,4S)-4-(3,4-difluorophenyl)-6-(2-(methylamido)-2-oxoethyl)piperidin-3-yl)benzamide]	1.21 µM	8.15	3.38 µM
Cn1ncc(Cl)c1-c1ccc(C(=O)N[C@@H]2CNCC[C@H]2c2ccc(F)c(F)c2)cc1F [Compound 82, 4-(4-chloro-1-methyl-1H-pyrazol-5-yl)-N-((3S,4S)-4-(3,4-difluorophenyl)piperidin-3-yl)-3-fluorobenzamide]	1.56 µM	7.80	1.15 µM
